Common to all, as to test: relative viability (nuclei count vs DMSO), 5 days (fraction); higher = more cells survive
Compound in assay [1]: Cc1cc([C@@H](C)Nc2ccccc2C(=O)O)c2nc(N3CCOCC3)cc(=O)n2c1 [AZD6482] + Cc1nc(NC(=O)N2CCC[C@H]2C(N)=O)sc1-c1ccnc(C(C)(C)C(F)(F)F)c1 [Alpelisib] (partner 2 µM)
The essentials:
(§1)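 Dosing by pin tool came one day after lung cancer cell lines were seeded in 1536-well plates, using either one drug or a fixed anchor-drug dose plus five library-drug doses (not always all listed) in √10 steps. After 5 days, nuclei were counted on 4× images. Relative viability is treated-well nuclei count divided by vehicle-well nuclei count, and values are medians of duplicate plates.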

Compound in assay [2]: COc1cc2nc(N3CCCN(C)CC3)nc(NC3CCN(Cc4ccccc4)CC3)c2cc1OC + Nc1ncn([C@H]2C[C@H](O)[C@@H](CO)O2)c(=O)n1 [Decitabine] (partner 2 µM)
In outline: as §1

Compound in assay [3]: Cc1cc([C@@H](C)Nc2ccccc2C(=O)O)c2nc(N3CCOCC3)cc(=O)n2c1 [AZD6482] + C[C@]1(O)C[C@@H](c2nc(-c3ccc4ccc(-c5ccccc5)nc4c3)c3c(N)nccn32)C1 [Linsitinib] (partner 1 µM)
In outline: as §1

Compound in assay [4]: Cc1cc([C@@H](C)Nc2ccccc2C(=O)O)c2nc(N3CCOCC3)cc(=O)n2c1 [AZD6482] + C[C@@H](Oc1cc(-c2cnn(C3CCNCC3)c2)cnc1N)c1c(Cl)ccc(F)c1Cl [Crizotinib] (partner 1 µM)
The essentials:
as §1

As for UMC-11, the relative viability worked out at 1.01 in assay [1] (first compound 0.08 µM); 0.938 in assay [1] (first compound 0.253 µM); 0.984 in assay [1] (first compound 0.8 µM); 0.693 in assay [1] (first compound 2.53 µM); 0.965 in assay [1] (first compound 8 µM); 0.598 in assay [2] (first compound 0.2 µM). The relative viability in assay [2] (first compound 0.6325 µM) turned out to be 0.577; in assay [2] (first compound 2 µM), 0.597; in assay [2] (first compound 6.325 µM), 0.451; in assay [3] (first compound 0.08 µM), 0.959; in assay [3] (first compound 0.253 µM), 0.962; in assay [3] (first compound 0.8 µM), 0.987. Moreover, the relative viability in assay [3] (first compound 2.53 µM) was determined as 0.787; in assay [3] (first compound 8 µM), 1; in assay [4] (first compound 0.08 µM), 0.505; in assay [4] (first compound 0.253 µM), 0.578; in assay [4] (first compound 0.8 µM), 0.628; in assay [4] (first compound 2.53 µM) it was 0.516. The relative viability in assay [4] (first compound 8 µM) was 0.511.

Source of the values: the supplement of paper PMC10307832.
